Data taken from patent US20250170090A1, “METHOD FOR PREVENTING OR TREATING DISEASE OR DISORDER ASSOCIATED WITH ANTINEOPLASTIC AGENT” (ONQUALITY PHARMACEUTICALS CHINA LTD., priority 2022, published 2025).

Experiments:
[1] = system: hand-foot syndrome caused by macromolecular anti-tumor agents; assay: Prevention of hand-foot syndrome caused by macromolecular protein inhibitors in rats (Table 3); type: in vivo
[2] = system: hand-foot syndrome caused by anti-tumor agents; assay: Treatment of established hand-foot syndrome caused by anti-tumor agents in rats (Table 4); type: in vivo
Outline: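 Rats (about 200 g), 10 per group, given anti-tumor agent by gavage (Cremophor EL:ethanol 1:1, diluted about 3 times with PBS), treated for established hand-foot syndrome with NO-NSAID ointment. Control rate is the blank-group incidence minus the treatment-group incidence.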

[3] = system: gastric epithelial cells (GES-1); assay: CCK-8 cell viability: alleviation of proliferative toxicity of anti-tumor agents on GES-1 (Table 8-3); type: cell-based, human; conditions: NO-NSAID 100 μM
Outline: (§1)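 Cells seeded at 5,000-10,000 per well and exposed to anti-tumor agent (DMSO solvent) alone or with NO-NSAID (ethanol or water solvent), with solvent controls used for correction. Viability read by CCK-8 after 24-48 hours; proliferative toxicity and its alleviation compared by t test.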

[4] = system: human immortalized keratinocytes (HaCaT); assay: CCK-8 cell viability: alleviation of proliferative toxicity of anti-tumor agents on HaCaT (Table 8-1); type: cell-based; conditions: NO-NSAID 100 μM, percentage increase in viable cells vs anti-tumor agent alone
Outline: as §1

[5] = system: chemotherapy-induced hand-foot syndrome; assay: Prevention of chemotherapy-induced hand-foot syndrome in rat models (Table 5); type: in vivo, SD rats
Outline: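 SD rats (~200 g, 10 per group) received chemotherapy drugs by gavage at 1 mL/100 g, then NO-NSAID ointment or blank ointment was applied to the paws. Hand-foot syndrome incidence was recorded, and control rate was taken as blank-group incidence minus treated-group incidence.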

[6] = system: human intestinal epithelial cells (FHs 74 Int); assay: CCK-8 cell viability: alleviation of proliferative toxicity of anti-tumor agents on FHs 74 Int (Table 8-4); type: cell-based; conditions: NO-NSAID 100 μM
Outline: as §1

[7] = system: human oral keratinocytes (HOK); assay: CCK-8 cell viability: alleviation of proliferative toxicity of anti-tumor agents on HOK (Table 8-2); type: cell-based; conditions: NO-NSAID 100 μM
Outline: as §1

## COc1ccc2cc(C(C)C(=O)OCCCCO[N+](=O)[O-])ccc2c1 (stereo not drawn) [Compound A5]
[1]; Bevacizumab, 5-FU combination, tail vein injection once a week, ointment 2.50% wt, Days 18
  Control rate: 50.00%
[1]; Bevacizumab, 5-FU combination, tail vein injection once a week, ointment 5% wt, Days 18
  Control rate: 66.67%
[1]; Ramucirumab combined with paclitaxel, intraperitoneal injection once a week, ointment 2.50% wt, Days 23
  Control rate: 33.33%
[1]; Ramucirumab combined with paclitaxel, intraperitoneal injection once a week, ointment 5% wt, Days 23
  Control rate: 50.00%
[2]; Apatinib 105 mg/kg once every two days, ointment 2.50% wt, Days 6
  Response rate: 28.57%
[2]; Cabozantinib 50 mg/kg once every two days, ointment 1% wt, Days 11
  Response rate: 33.33%
[2]; Encorafenib 80 mg/kg once every two days, ointment 2.50% wt, Days 7
  Response rate: 40.00%
[2]; Erdafitinib 45 mg/kg once every two days, ointment 2.50% wt, Days 13
  Response rate: 40.00%
[2]; Fruquintinib 40 mg/kg once every two days, ointment 2.50% wt, Days 8
  Response rate: 28.57%
[2]; Lenvatinib 65 mg/kg once a day, ointment 2.50% wt, Days 12
  Response rate: 42.86%
[2]; Olmutinib 100 mg/kg once every two days, ointment 2.50% wt, Days 10
  Response rate: 50.00%
[2]; Regorafenib 90 mg/kg once every two days, ointment 5% wt, Days 6
  Response rate: 57.14%
[2]; Sorafenib 80 mg/kg once every two days, ointment 2.50% wt, Days 5
  Response rate: 50.00%
[2]; Sunitinib 120 mg/kg once every two days, ointment 2.50% wt, Days 7
  Response rate: 33.33%
[3]; Afatinib (10 μM)
  Response rate % (average): 18%
[3]; Cabozantinib (5 μM)
  Response rate % (average): 37%
[3]; Dabrafenib (10 μM)
  Response rate % (average): 12%
[3]; Everolimus (5 μM)
  Response rate % (average): 33%
[3]; Infigratinib (15 μM)
  Response rate % (average): 36%
[3]; Lapatinib (5 μM)
  Response rate % (average): 40%
[3]; Lenvatinib (10 μM)
  Response rate % (average): 29%
[3]; Olmutinib (10 μM)
  Response rate % (average): 35%
[3]; Regorafenib (5 μM)
  Response rate % (average): 14%
[3]; Selumetinib (5 μM)
  Response rate % (average): 12%
[3]; Sorafenib (5 μM)
  Response rate % (average): 22%
[3]; Sunitinib (5 μM)
  Response rate % (average): 21%
[4]; Afatinib (10 μM)
  Response rate % (average): 32%
[4]; Cabozantinib (5 μM)
  Response rate % (average): 44%
[4]; Dabrafenib (10 μM)
  Response rate % (average): 7%
[4]; Everolimus (5 μM)
  Response rate % (average): 9%
[4]; Infigratinib (15 μM)
  Response rate % (average): 12%
[4]; Lapatinib (5 μM)
  Response rate % (average): 41%
[4]; Lenvatinib (10 μM)
  Response rate % (average): 9%
[4]; Olmutinib (10 μM)
  Response rate % (average): 40%
[4]; Regorafenib (5 μM)
  Response rate % (average): 22%
[4]; Selumetinib (5 μM)
  Response rate % (average): 13%
[4]; Sorafenib (5 μM)
  Response rate % (average): 31%
[4]; Sunitinib (5 μM)
  Response rate % (average): 33%
[5]; Acelarin 130 mg/kg twice a week, ointment 1% wt, Days 30
  Control rate: 28.57%
[5]; Acelarin 130 mg/kg twice a week, ointment 2.50% wt, Days 30
  Control rate: 57.14%
[5]; Capecitabine 4000 mg/kg once a day, ointment 1% wt, Days 40
  Control rate: 12.50%
[5]; Capecitabine 4000 mg/kg once a day, ointment 2.50% wt, Days 40
  Control rate: 22.22%
[5]; Capecitabine 4000 mg/kg once a day, ointment 5% wt, Days 40
  Control rate: 50.00%
[5]; Cytarabine 120 mg/kg twice a day, ointment 1% wt, Days 30
  Control rate: 14.29%
[5]; Cytarabine 120 mg/kg twice a day, ointment 2.50% wt, Days 30
  Control rate: 28.57%
[5]; Cytarabine 120 mg/kg twice a day, ointment 5% wt, Days 30
  Control rate: 57.14%
[5]; Doxorubicin 7 mg/kg once every three days, ointment 1% wt, Days 30
  Control rate: 37.50%
[5]; Doxorubicin 7 mg/kg once every three days, ointment 2.50% wt, Days 30
  Control rate: 50.00%
[6]; Afatinib (10 μM)
  Response rate % (average): 34%
[6]; Cabozantinib (5 μM)
  Response rate % (average): 36%
[6]; Dabrafenib (10 μM)
  Response rate % (average): −3%
[6]; Everolimus (5 μM)
  Response rate % (average): 28%
[6]; Infigratinib (15 μM)
  Response rate % (average): 16%
[6]; Lapatinib (5 μM)
  Response rate % (average): 43%
[6]; Lenvatinib (10 μM)
  Response rate % (average): 32%
[6]; Olmutinib (10 μM)
  Response rate % (average): 31%
[6]; Regorafenib (5 μM)
  Response rate % (average): 17%
[6]; Selumetinib (5 μM)
  Response rate % (average): 23%
[6]; Sorafenib (5 μM)
  Response rate % (average): 24%
[6]; Sunitinib (5 μM)
  Response rate % (average): 38%
[7]; Afatinib (10 μM)
  Response rate % (average): 36%
[7]; Cabozantinib (5 μM)
  Response rate % (average): 32%
[7]; Dabrafenib (10 μM)
  Response rate % (average): 8%
[7]; Everolimus (5 μM)
  Response rate % (average): 10%
[7]; Infigratinib (15 μM)
  Response rate % (average): 17%
[7]; Lapatinib (5 μM)
  Response rate % (average): 22%
[7]; Lenvatinib (10 μM)
  Response rate % (average): 25%
[7]; Olmutinib (10 μM)
  Response rate % (average): 38%
[7]; Regorafenib (5 μM)
  Response rate % (average): −2%
[7]; Selumetinib (5 μM)
  Response rate % (average): 8%
[7]; Sorafenib (5 μM)
  Response rate % (average): 28%
[7]; Sunitinib (5 μM)
  Response rate % (average): 29%
